From patent publication US5776957A, “Nornicotine enantiomers for use as a treatment for dopamine related conditions and disease states” (The University of Kentucky Research Foundation, priority 1996, dated 1998)
Entries after “also recorded” stand apart in the source; their conditions may differ. Where two headings read alike, the source gives them in different places.

Key:
[1] = system: [3H]DA-preloaded rat striatal slices (nicotinic receptors); assay: [3H]overflow (DA release) from [3H]DA-preloaded rat striatal slices; assay type: cell-based
Description: In vitro pharmacological effects of NIC are generally investigated using either striatal slices or synaptosome preparations preloaded with [^3 H] DA. NIC-evoked [^3 H]overflow is obtained routinely in the presence of nomifensine (10 μM; a DA uptake inhibitor) and for pargyline (10 μM, a monoamine oxidase inhibitor) in the superfusion buffer, such that [^3 H]overflow represents primarily [^3 H]DA rather than [H]DA-metabolites (Zumstein et al., 1981, Hoffmann and Cubeddu, 1982, Dwoskin and Zahniser, 1986, Rapier et al., 1988), and for this reason, [^3 H]overflow also will be referred to as [^3 H] DA release in the proposal.
The present studies use striatal slices superfused with various concentrations of NIC or norNIC for prolonged periods.
FIG. 4. […] Insets illustrate the response to the low concentration range. […] NIC exposure indicated by the bar under time course. Note: 1-min sample collection period. […] N=4 rats.
Rat striatal slices were depolarized with 10 μM NIC, 20 mM K+or 1 Hz, 60 pulses or 3 Hz, 180 pulses electrical field stimulation. […] N=4.
MEC or DHβE was included in the superfusion buffer for 60 min prior to the addition of NIC, and superfusion continued for 60 min in the presence of NIC+antagonist.

[2] = Locomotor activity assay, acute and repeated treatment, S(-) nicotine challenge, saline challenge; assay type: in vivo, rat; details: for cumulated locomotor activity after saline challenge: S(-) nicotine 1 mg/kg group; for cumulated locomotor activity vs saline-control: S(-) nicotine 1 mg/kg
Description: (I mg/kg), norNIC (0.3-10 mg/kg) or R(+) norNIC (0.3-10 mg/kg) was administered peripherally (s.c., 8 injections once every 48 hrs) to groups of rats and locomotor activity was assessed for 50 min immediately after each injection.
In the present study, S(-) nicotine (1 mg/kg), R(+) nornicotine (1-10 mg/kg), S(-) nornicotine (1-10 mg/kg), or vehicle (saline) were administered s.c. to groups of rats (n=6) acutely or repeatedly (8 injections once every 48 hrs). Locomotor activity was measured during 50 min sessions immediately following drug or vehicle administration.
Male Sprague-Hawley rats (225-250 g) from Harlan Laboratories were housed two per cage with free access to food and water.
Activity was recorded automatically in a wooden test-chamber measuring 30×28×43 cm high. The chamber had white walls and a wire mesh floor over pine chip bedding. Two photobeams located 4.5 cm above the floor divided the chamber into four equal quadrants. Electromechanical equipment located in an adjacent room recorded photobeam interruptions automatically. A white noise generator provided an ambient 70 dB background noise in the test room in order to minimize extraneous sounds that might influence the animal's behavior in the test chamber. Rats were habituated to the chamber for 50 min on each of three consecutive days.
On the day immediately after the third habituation session, rats were randomly divided into groups (n=6/group) and were administered s.c. either S(-) nicotine (1 mg/kg), R(+) nornicotine (0.3, 1, 3 and 10 mg/kg), or vehicle (saline) to determine acute drug effects on locomotor activity. In a separate experiment, rats (n=6/group) were administered s.c. either S(-) nicotine (1 mg/kg), S(-) nornicotine (0.3, 1, 3 and 10 mg/kg), or vehicle (saline). To determine the effect of repeated drug administration on locomotor activity, drug or vehicle was administered respectively in the test-room once every 48 hrs for a total of 8 injections. After each injection, locomotor activity was recorded during a 50 min session (five 10-min blocks). On the ninth injection day (48 hrs following injection 8), each group of rats was administered a challenge dose (1 mg/kg) of S(-) nicotine in the test-room, and locomotor activity was determined immediately thereafter. On the tenth injection day, each group of rats was administered saline and locomotor activity recorded to determine potential conditioning effects of the repeated drug administration.
Post hoc analysis of pairwise comparisons was performed with Duncan's New Multiple Range test.

[3] = system: mouse striatal synaptosomes; details: Grady et al., cited from earlier work
[4] = system: rat and mouse striatal synaptosomes; details: Rapier, El-Bizri, Rowell; cited from earlier work

## CN1CCC[C@H]1c1cccnc1 [S(-) nicotine]
[1]
  absolute [3H]overflow vs 20 mM K+ or 1 Hz, 60 pulses stimulation: not significantly different
  evoked [3H]overflow: increase in [^3 H]overflow; also recorded: stereoselective and concentration dependent increase
  plateau in [3H]overflow: 30 mM
  plateau in response: fail to produce a plateau in response
  time of peak effect: 10 to 15 min
  time of return of release to basal levels: 30 to 60 min
[2]; 8 injections once every 48 hrs, nicotine 1 mg/kg, R(+) 0.3-10 mg/kg, S(-) nornicotine 10 mg/kg
  behavioral sensitization after repeated administration: robust behavioral sensitization
[2]; 48 hrs after S(-) nicotine challenge
  conditioned response to repeated administration (saline challenge): did not contribute to the observed behavioral sensitization
[2]; R(+) experiment
  cumulated locomotor activity after saline challenge: 485 ± 41 number of photobeam interruptions/50 min session
[2]; S(-) experiment
  cumulated locomotor activity after saline challenge: 429 ± 34 number of photobeam interruptions/50 min session
[2]; acute S(-) nicotine 1 mg/kg, 20-40 min
  locomotor activity time course: did not alter activity
[2]; acute S(-) nicotine 1 mg/kg, first 10 min
  locomotor activity time course: significantly decreased activity
[2]; acute S(-) nicotine 1 mg/kg, last 10 min
  locomotor activity time course: significantly increased locomotor activity
[2]; acute
  cumulated locomotor activity vs saline-control: not different from the saline-control group; also recorded: did not alter
[2]; repeated S(-) nicotine group vs saline-control
  cumulated locomotor activity after S(-) nicotine challenge: significantly increased
[2]; repeated S(-) nicotine, first 20 min (R(+) experiment) vs saline-control
  time course after S(-) nicotine challenge: significantly increased
[2]; repeated S(-) nicotine, first 30 min (S(-) experiment)
  time course after S(-) nicotine challenge: significantly greater
[2]; repeated S(-) nicotine, majority of time course
  locomotor activity time course: significant increase in activity
[2]; repeated, 8 injections
  cumulated locomotor activity vs saline-control: significantly increased locomotor activity
[3]; 1992, read-out: EC50 for NIC-stimulated, MEC-sensitive [3H]overflow
  EC50: 0.48 µM
[3]; 1994, 0.1-30 μM, 10 min exposure, read-out: EC50, peak DA release
  EC50: 0.33 µM
[4]
  plateau concentration of concentration-response curve: 1 to 100 µM
